The text below walks through data of article PMC10698726 (Molecular Pharmaceutics, 2023).

One data set addresses T1, OCT1 (Homo sapiens, UniProt O15245).
T1 sequence (O15245 1-554): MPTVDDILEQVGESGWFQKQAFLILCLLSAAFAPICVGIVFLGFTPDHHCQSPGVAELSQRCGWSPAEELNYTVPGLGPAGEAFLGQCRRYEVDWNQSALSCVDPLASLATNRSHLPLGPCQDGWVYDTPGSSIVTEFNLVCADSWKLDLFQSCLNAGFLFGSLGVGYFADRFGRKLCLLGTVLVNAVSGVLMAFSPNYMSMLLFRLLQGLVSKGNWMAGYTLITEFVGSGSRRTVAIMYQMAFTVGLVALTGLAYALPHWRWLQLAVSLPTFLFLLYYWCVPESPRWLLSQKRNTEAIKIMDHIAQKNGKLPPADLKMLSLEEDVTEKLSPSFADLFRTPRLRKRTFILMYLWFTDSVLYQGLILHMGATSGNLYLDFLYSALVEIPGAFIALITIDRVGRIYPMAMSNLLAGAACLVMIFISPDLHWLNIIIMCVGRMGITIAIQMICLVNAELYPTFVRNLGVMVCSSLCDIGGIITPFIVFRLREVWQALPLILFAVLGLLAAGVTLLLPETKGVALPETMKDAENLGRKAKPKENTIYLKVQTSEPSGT
As to the kind of experiment: Inhibition of model substrate uptake in OCT1-overexpressing HEK293 cells. The data set is classed as cell-based. More on the design: expressed in transfected cells; host or cells: HEK293. The following applies: for inhibition at 5 min, 20 μM: OCT1-overexpressing HEK293 cells. The protocol:
Koepsell and Gorbulev (University of Würzburg, Germany).
Fluorescence quantification was performed in technical duplicates.

Another data set has as its target T2, OCT3 (Homo sapiens, UniProt O75751).
T2 construct: expressed in transfected cells; host or cells: HEK293
T2 sequence (O75751 1-556): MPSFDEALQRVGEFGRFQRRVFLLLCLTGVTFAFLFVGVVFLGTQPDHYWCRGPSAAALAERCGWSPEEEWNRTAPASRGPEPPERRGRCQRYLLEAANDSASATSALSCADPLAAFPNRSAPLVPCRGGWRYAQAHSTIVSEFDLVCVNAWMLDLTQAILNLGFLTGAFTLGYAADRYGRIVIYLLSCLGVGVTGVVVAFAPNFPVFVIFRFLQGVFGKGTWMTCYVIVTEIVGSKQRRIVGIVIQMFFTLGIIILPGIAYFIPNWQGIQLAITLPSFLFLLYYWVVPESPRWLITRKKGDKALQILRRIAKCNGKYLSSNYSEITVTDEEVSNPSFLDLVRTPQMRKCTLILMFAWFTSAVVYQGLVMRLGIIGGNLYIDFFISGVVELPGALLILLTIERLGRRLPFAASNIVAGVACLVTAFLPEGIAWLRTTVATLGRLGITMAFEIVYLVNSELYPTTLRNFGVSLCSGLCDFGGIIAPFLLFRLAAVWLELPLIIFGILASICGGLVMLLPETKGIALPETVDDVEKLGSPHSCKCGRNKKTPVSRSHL
Put plainly: Inhibition of model substrate uptake in OCT3-overexpressing HEK293 cells. The data set is classed as cell-based. The gist of the method:
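Transporter-overexpressing HEK293 cells were incubated 5 min in HBSS+ with 2 μM model substrate, with or without 20 μM inhibitor or increasing inhibitor concentrations. Uptake was read as ASP^+ fluorescence or by LC–MS/MS, with empty-vector uptake subtracted. IC50 came from a Hill fit of activity versus log concentration.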

In the next data set the target is T3, OCT2 (Homo sapiens, UniProt O15244).
T3 sequence (O15244 1-555): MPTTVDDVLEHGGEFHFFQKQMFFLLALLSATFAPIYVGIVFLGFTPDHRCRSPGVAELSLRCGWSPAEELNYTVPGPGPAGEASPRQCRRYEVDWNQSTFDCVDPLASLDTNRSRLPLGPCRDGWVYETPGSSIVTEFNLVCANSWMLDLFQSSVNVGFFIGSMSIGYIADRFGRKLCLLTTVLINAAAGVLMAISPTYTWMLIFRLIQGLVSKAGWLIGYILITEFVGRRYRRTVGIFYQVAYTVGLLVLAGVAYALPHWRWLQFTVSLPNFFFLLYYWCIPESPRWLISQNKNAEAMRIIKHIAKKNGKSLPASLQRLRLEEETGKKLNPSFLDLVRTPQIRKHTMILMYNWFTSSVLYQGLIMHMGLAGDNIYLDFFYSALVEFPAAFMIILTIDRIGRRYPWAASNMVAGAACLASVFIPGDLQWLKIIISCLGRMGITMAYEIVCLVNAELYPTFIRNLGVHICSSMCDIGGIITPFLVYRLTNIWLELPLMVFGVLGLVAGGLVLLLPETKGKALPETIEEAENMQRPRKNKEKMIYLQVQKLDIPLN
Put plainly: Inhibition of model substrate uptake in OCT2-overexpressing HEK293 cells. Conditions: for inhibition at 5 min, 20 μM / (S,S)-Ethambutol inhibition [%] / ASP+ inhibition [%] / N-Ethyllidocaine inhibition [%]: OCT2, 20 μM inhibitor; for IC50: IC50, OCT2, Table S5, 2 μM ASP+ as model substrate; for inhibition at 5 min, 20 μM / IC50 / (S,S)-Ethambutol inhibition [%] / ASP+ inhibition [%] / N-Ethyllidocaine inhibition [%]: 5 min.

The mark [1] stands for this setting: human, pH 7.4, probe (S,S)-ethambutol (2 μM), (S,S)-Ethambutol inhibition [%], OCT1, 20 μM inhibitor, 2 μM (S,S)-ethambutol, 5 min.
Where [2] appears, read: human, pH 7.4, probe ASP+ (2 μM), OCT1, 20 μM inhibitor, 2 μM ASP+, 5 min, mean of three experiments, read-out: ASP+ inhibition [%].
[3] abbreviates: human, pH 7.4, probe sumatriptan (2 μM), OCT1, 20 μM inhibitor, 2 μM sumatriptan, 5 min, read-out: Sumatriptan inhibition [%].
The mark [4] stands for this setting: HEK293, 5 min, read-out: (S)-Zolmitriptan inhibition [%], OCT3, 20 μM inhibitor, 2 μM (S)-zolmitriptan, 5 min.
Where [5] appears, read: HEK293, 5 min, read-out: (S,S)-Ethambutol inhibition [%], OCT3, 20 μM inhibitor, 2 μM (S,S)-ethambutol, 5 min.
Where [6] appears, read: HEK293, OCT3, 20 μM inhibitor, 2 μM ASP+, 5 min, read-out: ASP+ inhibition [%].
Where [7] appears, read: human, OCT2-overexpressing HEK293 cells, pH 7.4, probe (S,S)-ethambutol (2 μM), (S,S)-Ethambutol inhibition [%], 2 μM (S,S)-ethambutol.
Where [8] appears, read: human, OCT2-overexpressing HEK293 cells, pH 7.4, probe ASP+ (2 μM), ASP+ inhibition [%], 2 μM ASP+.
Where [9] appears, read: human, OCT2-overexpressing HEK293 cells, pH 7.4, probe N-ethyllidocaine (2 μM), N-Ethyllidocaine inhibition [%], 2 μM N-ethyllidocaine.
Where [10] appears, read: OCT1, 20 μM inhibitor, 2 μM ASP+, 5 min, mean of three experiments.
The mark [11] stands for this setting: OCT3, 20 μM inhibitor, 2 μM ASP+, 5 min.
Where [12] appears, read: HEK293, 5 min, read-out: (S)-Zolmitriptan inhibition [%].
[13] abbreviates: HEK293, 5 min, read-out: (S,S)-Ethambutol inhibition [%].

Where two headings read alike, the source gives them in different places.

For `CNC[C@H](O)c1cccc(O)c1` [(R)-Phenylephrine], the inhibition at 5 min, 20 μM is 6.3% against OCT1 (setting [1]); 3.2% on OCT1 (setting [2]); -2.8% at OCT1 (setting [3]); -8.4% against OCT2 (setting [7]); 8.2% against OCT2 (setting [8]); -1.4% against OCT2 (setting [9]). The values for the inhibition at 20 µM at OCT3 (setting [4]), at OCT3 (setting [5]) and on OCT3 (setting [6]) were -2.9%, 5% and -4.1%, respectively.
`CCCN[C@@H]1CCc2nc(N)sc2C1` [(R)-Pramipexole]: the IC50 at OCT1 (OCT1, Table S5, 2 μM ASP+ or ethambutol as model substrate, 5 min, read-out: IC50) was 20.2 µM; against OCT2, 20.4 µM. In addition, the inhibition at 5 min, 20 μM on OCT1 (setting [1]) is 51.6%; on OCT1 (setting [2]), 19.8%; on OCT1 (setting [3]), 55.8%; on OCT2 (setting [7]), 10.5%; at OCT2 (setting [8]) it was 43.3%; against OCT2 (setting [9]), 37.1%. Further, the inhibition at 20 µM at OCT3 (setting [4]) was determined as 13%; at OCT3 (setting [5]), 23.1%; at OCT3 (setting [6]) it was 5.3%.
Regarding `CC(C)NC[C@@H](O)COc1cccc2ccccc12` [(R)-Propranolol], the inhibition at 5 min, 20 μM is 79.9% at OCT1 (setting [1]); 44.8% on OCT1 (setting [2]); 84.3% on OCT1 (setting [3]); 25% on OCT2 (setting [7]); 47.8% against OCT2 (setting [8]); 20% against OCT2 (setting [9]). The IC50 at OCT3 (OCT3, Table 1, read-out: IC50) was determined as 195 µM.
With `C#CCN[C@@H]1CCc2ccccc21` [(R)-Rasagiline], the “ASP+ inhibition [%]” value at OCT1 (setting [10]) is -1.3%; at OCT3 (setting [11]), -11.8%; at OCT2 (2 μM ASP+), 51.7%. Besides, the values for the inhibition at 5 min, 20 μM against OCT1 (setting [1]) and at OCT1 (setting [3]) were 32% and 42.7%, respectively. Moreover, the figures for the inhibition at 20 µM at OCT3 (setting [4]) and at OCT3 (setting [5]) were 10.3% and 13.4%, respectively. In addition, the “(S,S)-Ethambutol inhibition [%]” value at OCT2 (2 μM (S,S)-ethambutol) turned out to be 51.3%. Moreover, the “N-Ethyllidocaine inhibition [%]” value at OCT2 (2 μM N-ethyllidocaine) was found to be 56.7%.
On to `CC(C)(C)NC[C@H](O)c1ccc(O)c(CO)c1` [(R)-Salbutamol], for which the “Sumatriptan inhibition [%]” value on OCT1 (OCT1, 20 μM inhibitor, 2 μM sumatriptan, 5 min) is -18.8%. Also, the inhibition at 5 min, 20 μM was found to be 12.2% at OCT1 (setting [1]) and 5.3% at OCT1 (setting [2]). The inhibition at 20 µM at OCT3 (setting [5]) stood at 19.5%. For the same compound, on OCT3 (OCT3, 20 μM inhibitor, 2 μM (S)-zolmitriptan, 5 min), the “(S)-Zolmitriptan inhibition [%]” value is -6.4%. In addition, the results for the “ASP+ inhibition [%]” value at OCT3 (setting [11]) and at OCT2 (2 μM ASP+) were 10.3% and 12.8%, respectively. Moreover, the “(S,S)-Ethambutol inhibition [%]” value at OCT2 (2 μM (S,S)-ethambutol) is on record as -0.3%. Also, the “N-Ethyllidocaine inhibition [%]” value on OCT2 (2 μM N-ethyllidocaine) is listed as -15.0%.
`CC(C)C[C@@H](N(C)C)C1(c2ccc(Cl)cc2)CCC1` [(R)-Sibutramine]: the results for the “ASP+ inhibition [%]” value at OCT1 (setting [10]), on OCT3 (setting [11]) and at OCT2 (2 μM ASP+) were 41.5%, 2.6% and 81.6%, respectively. Further, the “Sumatriptan inhibition [%]” value on OCT1 (human, pH 7.4) is 74.0%. Moreover, the inhibition at 20 µM on OCT3 (setting [12]) was determined as 38.1%; at OCT3 (setting [13]) it was 35.5%. Moreover, at OCT2 (2 μM N-ethyllidocaine), the “N-Ethyllidocaine inhibition [%]” value is 51.2%.
With `CC(C)(C)NC[C@@H](O)COc1nsnc1N1CCOCC1` [(R)-Timolol], the inhibition at 5 min, 20 μM against OCT1 (setting [1]) came to 32.1%; at OCT1 (setting [2]), 12.9%; at OCT1 (setting [3]), 55%; at OCT2 (setting [7]), 12%; against OCT2 (setting [8]), 37.2%; on OCT2 (setting [9]) it was 24.7%. In addition, the figures for the inhibition at 20 µM on OCT3 (setting [4]), at OCT3 (setting [5]) and at OCT3 (setting [6]) were 7.6%, 8.2% and 28.6%, respectively. This compound showed an IC50 against OCT2 of 121 µM. Further, the selectivity ratio at 5 min at OCT2 (human, OCT2-overexpressing HEK293 cells, pH 7.4) was 2.
For the compound `COc1ccc([C@H](CN(C)C)C2(O)CCCCC2)cc1` [(R)-Venlafaxine], at OCT1 (human, pH 7.4), the “Sumatriptan inhibition [%]” value amounted to 70.8%. Besides, the results for the inhibition at 20 µM on OCT3 (setting [12]), on OCT3 (setting [13]) and at OCT3 (setting [6]) were 12.6%, 12.3% and -2.8%, respectively. Besides, the “ASP+ inhibition [%]” value at OCT2 (2 μM ASP+) is reported as 29.1%. Also, the “N-Ethyllidocaine inhibition [%]” value at OCT2 (2 μM N-ethyllidocaine) came to 23.1%.
